Test results as given in patent US7645802B2 (Biovail Laboratories International SRL., priority 2005, dated 2010).
Structures can show the parent of a compound that is named as a salt. Where two headings read alike, the source gives them in different places. Marks after values point to notes of the source that are not given here.

Legend:
[1] = Moisture content and pH of aqueous solutions of bupropion salts; type: physicochemical
[2] = cited from earlier work
[3] = test system: chemically-induced seizures (induced by pentylenetetrazole) in mice; details: cited from earlier work
[4] = stability of polymorphic forms I, II, III by PXRD under ICH conditions; type: physicochemical; details: hydrobromide
Experimental: It is well known that organic molecules can crystallize into solid forms. Moreover the same organic compound may assume different crystalline arrangements in solid form, depending on the conditions under which the crystal product is formed. This phenomenon is commonly known as polymorphism. A study was undertaken to explore the polymorphic forms of bupropion hydrobromide. The crystal forms of the products obtained in this study were determined by powder X-ray diffraction (PXRD). A RIGAKU miniflex instrument (Radiation Cu Koc, generator 30 KV, filter Ni) was used to obtain the PXRD data.
The three polymorphic forms were subjected to stability testing. Samples of the polymorphic forms were subjected to ICH conditions (40° C., 75% R.H.) and PXRD data was obtained at 3 months and 6 months. […] Samples of the polymorphic forms II and III were tested after 1 month under the same accelerated stability conditions.
Samples of bupropion HBr form I were subjected to the conditions for the accelerated stability study as described in Example 10 and the shelf life stability study as described in Example 11.
10 g of bupropion HBr form I were dissolved in a mixture of 170 ml of acetone and 7 ml of water. The mixture was brought to reflux with dissolution of the solid. The solution was then cooled to room temperature. After one night the precipitate formed was filtered and dried at 40° C. under vacuum (30 mmHg) for 12 hours. 2.4 g of bupropion HBr form II were obtained. […] The crystalline form was checked after maintaining the product under these conditions for 1 month.
The mixture was brought to reflux obtaining complete dissolution of the solid. The solution was then cooled to room temperature without stirring and left in these conditions for 18 hours. The resulting crystalline solid was then filtered and dried under vacuum (30 mmHg) at 50° C. for 4 hours. 11.2 g of bupropion HBr form III were obtained. A sample of the product was prepared for stability testing by sealing the product in polyethylene bags, which in turn were placed in aluminium bags containing silica and sealed, and placed in the stability chamber in ICH conditions (40° C./75% R.H.). The crystalline form was checked after maintaining the product in these conditions for 1 month.

[5] = moisture content by KF and pH (aq. 0.5%) of bupropion salts; type: physicochemical
Experimental: The eight salts were first evaluated by HPLC, KF, pH and DSC for purity, water content, aqueous pH and possible polymorphs.
(§1) The salts were analyzed by DSC (at 10° C./min from 30° C. up to 400° C.) and the pH (aq. 0.5%), and the moisture content by KF were also measured. The TGA was performed on the HCl, maleate, tosylate and HBr salts.

[6] = forced degradation stability study of bupropion salts in vials, 40 degrees C./75% RH, HPLC assay and impurities
TGA of bupropion salts = type: physicochemical; details: for residue (TGA): at 400° C.; for weight lost (TGA): from room temperature to 100° C.
Experimental: 2-5 mg of each salt was placed in an aluminium pan and covered with its lid. DSC was run for each sample at the rate of 10 degrees C./min (for HBr salt, different rates were used to investigate for polymorphs) from 30 degrees C. to 400 degrees C. TGA was also used for each of the HBr, HCl, maleate and tosylate salts.
as §1

[7] = After re crystallization (R&D), tested after 1 day
[8] = Lower Alcohol Fatty Acid Ester Surfactants (Table 97)
[9] = Mono- and Diglyceride Surfactants (Table 89)
[10] = Sorbitan Fatty Acid Ester Surfactants (Table 96)
[11] = ICH conditions 40° C./75% R.H., 1 month
[12] = after re-crystallization in acetonitrile/hexane or acetonitrile/EtOAc
[13] = Polyethylene Glycol Alkyl Ethers (Table 92)
[14] = Sterol and Sterol Derivative Surfactants (Table 90)
[15] = Sugar Ester Surfactants (Table 93)

CC(NC(C)(C)C)C(=O)c1cccc(Cl)c1.O=C(O)CC(O)(CC(=O)O)C(=O)O (centres unmarked) [Bup-Citrate (I)]
moisture content KF ([1]; Original (Initial APIs)): 0.23% | pH (aq. 0.5%) ([1]; Original (Initial APIs)): 3.89

Br.CC(NC(C)(C)C)C(=O)c1cccc(Cl)c1 (centres unmarked) [Bup-HBr]
moisture content KF ([1]; Original (Initial APIs)): 0.00%

CC(NC(C)(C)C)C(=O)c1cccc(Cl)c1.Cl (centres unmarked) [Bup-HCl]
moisture content KF ([1]; Original (Initial APIs)): 0.0% | pH (aq. 0.5%) ([1]; Original (Initial APIs)): 5.90

CC(NC(C)(C)C)C(=O)c1cccc(Cl)c1.O=C(O)/C=C\C(=O)O (centres unmarked) [Bup-Maleate]
moisture content KF ([1]; Original (Initial APIs)): 0.10% | pH (aq. 0.5%) ([1]; Original (Initial APIs)): 4.29

CC(NC(C)(C)C)C(=O)c1cccc(Cl)c1.CC(NC(C)(C)C)C(=O)c1cccc(Cl)c1.O=C(O)C(O)C(O)C(=O)O (centres unmarked) [Bup-Tartrate neutral]
moisture content KF ([1]; Original (Initial APIs)): 0.14% | pH (aq. 0.5%) ([1]; Original (Initial APIs)): 3.62

CC(NC(C)(C)C)C(=O)c1cccc(Cl)c1.Cc1ccc(S(=O)(=O)O)cc1 (centres unmarked) [Bup-Tosylate]
moisture content KF ([1]; After re crystallization (R&D), tested after 2 Months): 0.18% | moisture content KF [1, 7]: 023% | pH (aq. 0.5%) [1, 7]: 5.88 | moisture content KF ([1]; Original (Initial APIs)): 1.71* % | pH (aq. 0.5%) ([1]; Original (Initial APIs)): 5.56

CCCCC/C=C\C/C=C\CCCCCCCC(=O)OCC [Ethyl linoleate]
HLB [2, 8]: <10

CCCCCCCC/C=C\CCCCCCCC(=O)OCC [Ethyl oleate]
HLB [2, 8]: <10

CCCCC/C=C\C/C=C\CCCCCCCC(=O)OCC(O)CO (centres unmarked) [Glycerol monolinoleate]
HLB [2, 9]: 3-4

CCCCCCCCCCCCCCCC(=O)OCC(O)CO (centres unmarked) [Glycerol monopalmitate]
HLB [2, 9]: 4

CCCCCCCCCCCCCCCCCC(=O)OCC(O)CO (centres unmarked) [Glycerol monostearate]
HLB [2, 9]: 5-9

CC(=O)OCC(O)CO (centres unmarked) [Glyceryl acetate]
HLB [2, 9]: <10

CCCCCCCC(=O)OCC(O)CO (centres unmarked) [Glyceryl caprylate]
HLB [2, 9]: 5-6

CCCCCCCCCCCC(=O)OCC(O)CO (centres unmarked) [Glyceryl laurate]
HLB [2, 9]: 4

CCCCCCCCCCCC(=O)OCC(O)CO (centres unmarked) [Glyceryl monolaurate]
HLB [2, 9]: 6.8

CCCCCCCCCCCCCC(=O)OCC(O)CO (centres unmarked) [Glyceryl monomyristate (C14)]
HLB [2, 9]: 3-4

CCCCCCCC/C=C\CCCCCCCC(=O)OCC(O)CO (centres unmarked) [Glyceryl monooleate (C18:1)]
HLB [2, 9]: 3-4

CCCCCC[C@@H](O)C/C=C\CCCCCCCC(=O)OCC(O)CO (some centres unmarked) [Glyceryl ricinoleate]
HLB [2, 9]: 6

CCCCC/C=C\C/C=C\CCCCCCCC(=O)OC(C)C [Isopropyl linoleate]
HLB [2, 8]: <10

CCCCCCCCCCCCCC(=O)OC(C)C [Isopropyl myristate]
HLB [2, 8]: <10

CCCCCCCCCC(=O)OCC(O)CO (centres unmarked) [Monocaprin]
HLB [2, 9]: <10

CCCCCC(=O)OCC(O)CO (centres unmarked) [Monocaproin (C6)]
HLB [2, 9]: <10

CCCCCCCC(=O)OCC(O)CO (centres unmarked) [Monocaprylin]
HLB [2, 9]: <10

CCCCCCCC/C=C/CCCCCCCC(=O)OCC(O)CO (centres unmarked) [Monoelaidin (C18:1)]
HLB [2, 9]: <10

CCCCCCCCCCCC(=O)OCC(O)CO (centres unmarked) [Monolaurin]
HLB [2, 9]: <10

CCCCCCCCCCCCOS(=O)(=O)[O-].[Na+] [Sodium lauryl sulfate (dodecyl)]
HLB ([2]; Ionic Surfactants (Table 98)): 40

CCCCCCCC/C=C\CCCCCCCC(=O)[O-].[Na+] [Sodium oleate]
HLB ([2]; Ionic Surfactants (Table 98)): 18

CCCCCCCCCCCCCCCC(=O)OC[C@@H](O)[C@H]1OC[C@H](O)[C@H]1O [Sorbitan monopalmitate]
HLB [2, 10]: 6.7

Br [bromide]
ED50 / therapeutic dose level against pentylenetetrazole-induced seizures [3]: 910 mg/kg

CC(NC(C)(C)C)C(=O)c1cccc(Cl)c1 (centres unmarked) [bupropion HBr form I, bupropion hydrobromide]
PXRD profile after storage (polymorph stability) ([4]; 40° C., 75% R.H. (b1144 also 25° C./60% RH), 3 months and 6 months): gave the same results | PXRD profile after storage (polymorph stability) ([4]; 40° C., 75% R.H. (b1144 also 25° C./60% RH), 3 months and 6 months, listed as polymorphic form I): same PXRD profile

CC(NC(C)(C)C)C(=O)c1cccc(Cl)c1 (centres unmarked) [bupropion HBr form II, bupropion hydrobromide]
PXRD profile after storage (polymorph stability) [4, 11]: still in form II | PXRD profile after storage (polymorph stability) ([4]; ICH conditions 40° C./75% R.H., 1 month, listed as Polymorphic form II): no change in the PXRD profile

CC(NC(C)(C)C)C(=O)c1cccc(Cl)c1 (centres unmarked) [bupropion HBr form III, bupropion hydrobromide]
PXRD profile after storage (polymorph stability) [4, 11]: not stable in this form under these conditions | PXRD profile after storage (polymorph stability) ([4]; ICH conditions 40° C./75% R.H., 1 month, listed as form III): conversion to form II

Bupropion Fumarate
moisture content KF ([5]; salt as received): 0.09% | pH of the aqueous solution of 0.5% ([5]; salt as received): 3.84 | In IPA/EtOH, 3-CBZ: order of impurity content [6]: maleate > HBr > HCl > Fumarate | In IPA/EtOH, 852U77: order of impurity content [6]: fumarate > HBr ≈HCl ≈maleate ≈tosylate | In IPA/EtOH, Total imp.: order of impurity content [6]: fumarate > maleate > HBr > HCl > tosylate | In water, 3-CBZ: order of impurity content [6]: HCl > HBr≈maleate≈fumarate | In water, 852U77: order of impurity content [6]: fumarate > HBr > maleate > HCl | In water, Total imp.: order of impurity content [6]: fumarate > HBr > HCl > tosylate > maleate

Bupropion maleate
moisture content KF ([5]; salt as received): 0.10% | pH of the aqueous solution of 0.5% ([5]; salt as received): 4.29 | thermally stable to at least (TGA) (TGA of bupropion salts): at least 150 °C | residue (TGA) (TGA of bupropion salts): minimal residues | weight lost (TGA) (TGA of bupropion salts): 1.3% | In IPA/EtOH, 3-CBZ: order of impurity content [6]: maleate > HBr > HCl > Fumarate | In IPA/EtOH, 852U77: order of impurity content [6]: fumarate > HBr ≈HCl ≈maleate ≈tosylate | In IPA/EtOH, Total imp.: order of impurity content [6]: fumarate > maleate > HBr > HCl > tosylate | In water, 3-CBZ: order of impurity content [6]: HCl > HBr≈maleate≈fumarate | In water, 852U77: order of impurity content [6]: fumarate > HBr > maleate > HCl | In water, Total imp.: order of impurity content [6]: fumarate > HBr > HCl > tosylate > maleate

Bupropion tosylate
moisture content KF [5, 12]: 0.23% | pH [5, 12]: 5.88 | moisture content KF ([5]; re-crystallized sample retested after two months): 0.18% | moisture content KF ([5]; salt as received): 1.71% | pH of the aqueous solution of 0.5% ([5]; salt as received): 5.56 | residue (TGA) (TGA of bupropion salts): 10.3% | weight lost (TGA) (TGA of bupropion salts): 1.3% | In IPA/EtOH, 852U77: order of impurity content [6]: fumarate > HBr ≈HCl ≈maleate ≈tosylate | In IPA/EtOH, Total imp.: order of impurity content [6]: fumarate > maleate > HBr > HCl > tosylate | In water, Total imp.: order of impurity content [6]: fumarate > HBr > HCl > tosylate > maleate

Caprylic/capric glycerides
HLB [2, 9]: <10

Distearin
HLB [2, 9]: <10

Glycerol monooleate/linoleate
HLB [2, 9]: 3-4

Glyceryl dioleate
HLB [2, 9]: 3-4

Glyceryl mono-, dioleate
HLB [2, 9]: <10

Glyceryl palmitic/stearic
HLB [2, 9]: <10

Mono-and diacetylated monoglycerides
HLB [2, 9]: 3.8-4

PEG-3 oleyl ether
HLB [2, 13]: <10

PEG-4 lauryl ether
HLB [2, 13]: 9.7

PEG-5 oleyl ether
HLB [2, 13]: <10

PEG-5 soya sterol
HLB [2, 14]: <10

PEG-10 soya sterol
HLB [2, 14]: <10

PEG-20 soya sterol
HLB [2, 14]: <10

PEG-24 cholesterol ether
HLB [2, 14]: >10

PEG-25 phyto sterol
HLB [2, 14]: >10

PEG-30 cholestanol
HLB [2, 14]: >10

PEG-30 soya sterol
HLB [2, 14]: >10

Phytosterol
HLB [2, 14]: <10

Sorbitan monoisostearate
HLB [2, 10]: 4.7

Sorbitan monooleate
HLB [2, 10]: 4.3

Sorbitan monostearate
HLB [2, 10]: 4.7

Sorbitan sesquistearate
HLB [2, 10]: 4.2

Sorbitan trioleate
HLB [2, 10]: 4.3

Sucrose dipalmitate
HLB [2, 15]: 7.4

Sucrose distearate
HLB [2, 15]: 3

Sucrose monopalmitate
HLB [2, 15]: >10
